The values below are quoted from earlier work in patent US7550162B2, “Labiatae herb extracts and hop extracts for extending the color life and inhibiting the growth of microorganisms in fresh meat, fish and poultry” (Kalsec Incorporated, priority 2001, dated 2009).

Converted amounts (≈) assume the structure as drawn. Where two headings read alike, the source gives them in different places.

For data set [1], the system named is Gram-positive organisms. The settings on record: value also given in ppm.
Data set [2] has as its system Gram positive organisms. The settings on record: in culture.
The test system of data set [3] is Listeria. The note with it: soy broth.
The test system of data set [4] is beer spoilage organisms.

For `CC(C)=CCC1=C(O)C(C(=O)CC(C)C)=C(O)C(CC=C(C)C)(CC=C(C)C)C1=O` [Lupulone (beta acids), Lupulone], the Minimum inhibitory concentration in data set [1] is 1 µg/mL (≈ 2.41 µM). Moreover, in data set [2], the MIC is on record as 1-10 ppm.

For `CC(C)CCC(=O)C1(O)C(O)=C(C(=O)CC(C)C)C(=O)C1CCC(C)C` (centres unmarked) [Tetrahydroisohumulone, tetrahydroisohumulone], the “concentration inhibiting Listeria” value in data set [3] is reported as 6-18 ppm.

Regarding `CC(C)CCC1=C(O)C(C(=O)C(C)C)=C(O)C(CCC(C)C)(CCC(C)C)C1=O` [hexahydrocolulupone, hexahydrocolupulone], the “concentration inhibiting Listeria” value in data set [3] is recorded as 0.4 ppm.

For the compound `CC(C)=CCC1=C(O)C(C(=O)CC(C)C)=C(O)C1O` (centres unmarked) [humulinic acid], the Minimum inhibitory concentration in data set [1] is 250 µg/mL (≈ 939 µM).

As for `CC(C)=CCC(=O)C1(O)C(O)=C(C(=O)CC(C)C)C(=O)C1CC=C(C)C` (centres unmarked) [isohumulone], in data set [1], the Minimum inhibitory concentration was 25 µg/mL (≈ 69 µM). In addition, the values for the relative activity in data set [4] (pH 3.8) and in data set [4] (pH 4.6) were 226 and 42, respectively.
